Data as given in patent US11325889B2, “Substituted 3-((3-aminophenyl)amino)piperidine-2,6-dione compounds, compositions thereof, and methods of treatment therewith” (Celgene Corporation, priority 2018, dated 2022).

Biological target: T1, AR protein in VCaP cells (Homo sapiens, UniProt P10275)
T1 construct: endogenous in cells; host or cells: VCaP cells
T1 sequence (P10275 1-920): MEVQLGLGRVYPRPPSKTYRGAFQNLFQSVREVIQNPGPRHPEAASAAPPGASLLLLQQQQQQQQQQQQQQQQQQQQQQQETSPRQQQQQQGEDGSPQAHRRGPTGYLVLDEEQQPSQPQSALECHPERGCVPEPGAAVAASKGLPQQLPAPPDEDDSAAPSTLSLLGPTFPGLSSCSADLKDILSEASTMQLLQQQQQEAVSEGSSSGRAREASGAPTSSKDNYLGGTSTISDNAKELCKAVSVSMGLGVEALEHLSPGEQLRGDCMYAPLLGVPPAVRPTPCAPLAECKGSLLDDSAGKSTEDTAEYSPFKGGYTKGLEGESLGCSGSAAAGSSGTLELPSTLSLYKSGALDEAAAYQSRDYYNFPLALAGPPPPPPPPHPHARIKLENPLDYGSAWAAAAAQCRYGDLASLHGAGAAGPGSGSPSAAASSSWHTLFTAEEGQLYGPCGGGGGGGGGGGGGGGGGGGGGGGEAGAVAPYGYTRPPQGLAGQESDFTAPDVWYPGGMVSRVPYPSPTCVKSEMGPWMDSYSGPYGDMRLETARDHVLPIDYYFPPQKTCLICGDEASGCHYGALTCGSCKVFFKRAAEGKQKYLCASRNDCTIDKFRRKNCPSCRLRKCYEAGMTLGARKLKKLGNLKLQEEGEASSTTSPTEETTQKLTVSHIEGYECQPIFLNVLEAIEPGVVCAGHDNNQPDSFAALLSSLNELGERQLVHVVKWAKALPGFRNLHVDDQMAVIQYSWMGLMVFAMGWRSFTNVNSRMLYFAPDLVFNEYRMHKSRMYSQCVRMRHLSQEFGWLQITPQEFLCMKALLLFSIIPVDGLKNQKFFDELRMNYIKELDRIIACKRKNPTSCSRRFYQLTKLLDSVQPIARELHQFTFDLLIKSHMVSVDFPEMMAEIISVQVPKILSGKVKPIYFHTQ
Assay: VCAP AR Degradation Assay (AR ELISA, 24 h)
Type: cell-based
Details: for Y (lowest measured AR level normalized to DMSO control): AR degradation efficiency; for DC50: concentration of compound when AR level = 50% of DMSO control, read-out: DC50
In short: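 VCaP cells in DMEM with 8% FBS exposed for 24 h at 37° C to a 10-point, 1:3 series (final top concentration […]; 0.1% DMSO control). Lysate AR measured by sandwich ELISA and normalized to DMSO as percent of control. DC50, EC50 and lowest AR level (Y) from four-parameter logistic fit.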

SMILES | Y (lowest measured AR level normalized to DMSO control) | DC50 [nM]
CCc1cc(N2C(=S)N(c3ccc(C#N)c(C(F)(F)F)c3)C(=O)C2(C)C)ccc1OCC[C@H]1CCN(CC(=O)Nc2cccc(NC3CCC(=O)NC3=O)c2)[C@H](C)C1 (stereo partly drawn) [Cmpd 70, 2-((2R,4S)-4-(2-(4-(3-(4-cyano-3-(trifluoromethyl)phenyl)-5,5-dimethyl-4-oxo-2-thioxoimidazolidin-1-yl)-2-ethylphenoxy)ethyl)-2-methylpiperidin-1-yl)-N-(3-(2,6-dioxopiperidin-3-ylamino)phenyl)acetamide] | * (0<Y<=25%) | < 100
CCc1cc(N2C(=S)N(c3ccc(C#N)c(C(F)(F)F)c3)C(=O)C2(C)C)ccc1OCC[C@@H]1CCN(CC(=O)Nc2cccc(NC3CCC(=O)NC3=O)c2)[C@H](C)C1 (stereo partly drawn) [Cmpd 71, 2-((2R,4R)-4-(2-(4-(3-(4-cyano-3-(trifluoromethyl)phenyl)-5,5-dimethyl-4-oxo-2-thioxoimidazolidin-1-yl)-2-ethylphenoxy)ethyl)-2-methylpiperidin-1-yl)-N-(3-(2,6-dioxopiperidin-3-ylamino)phenyl)acetamide] | * (0<Y<=25%) | < 100
CCc1cc(N2C(=S)N(c3ccc(C#N)c(C(F)(F)F)c3)C(=O)C23CCC3)ccc1OCCC1CCN([C@@H](C)C(=O)Nc2cc(NC3CCC(=O)NC3=O)ccc2F)CC1 (stereo partly drawn) [Cmpd 74, (2S)-2-(4-(2-(4-(7-(4-cyano-3-(trifluoromethyl)phenyl)-8-oxo-6-thioxo-5,7-diazaspiro[3.4]octan-5-yl)-2-ethylphenoxy)ethyl)piperidin-1-yl)-N-(5-(2,6-dioxopiperidin-3-ylamino)-2-fluorophenyl)propanamide] | ** (25%<Y<=35%) | 100 to 500
CCc1cc(N2C(=S)N(c3ccc(C#N)c(C(F)(F)F)c3)C(=O)C23CCC3)ccc1OCCC1CCN([C@H](C)C(=O)Nc2cc(NC3CCC(=O)NC3=O)ccc2F)CC1 (stereo partly drawn) [Cmpd 75, (2R)-2-(4-(2-(4-(7-(4-cyano-3-(trifluoromethyl)phenyl)-8-oxo-6-thioxo-5,7-diazaspiro[3.4]octan-5-yl)-2-ethylphenoxy)ethyl)piperidin-1-yl)-N-(5-(2,6-dioxopiperidin-3-ylamino)-2-fluorophenyl)propanamide] | ** (25%<Y<=35%) | 100 to 500
CCc1cc(N2C(=S)N(c3cnc(C#N)c(C(F)(F)F)c3)C(=O)C2(C)C)ccc1OCC1CCN(CC(=O)Nc2cc(Cl)cc(NC3CCC(=O)NC3=O)c2)CC1 (stereo not drawn) [Cmpd 81, N-(3-chloro-5-(2,6-dioxopiperidin-3-ylamino)phenyl)-2-(4-((4-(3-(6-cyano-5-(trifluoromethyl)pyridin-3-yl)-5,5-dimethyl-4-oxo-2-thioxoimidazolidin-1-yl)-2-ethylphenoxy)methyl)piperidin-1-yl)acetamide] | ** (25%<Y<=35%) | < 100
CCc1cc(N2C(=S)N(c3ccc(C#N)c(C(F)(F)F)c3)C(=O)C2(C)C)ccc1OCC[C@H]1CCN(CC(=O)Nc2cc(NC3CCC(=O)NC3=O)ccc2F)[C@H](C)C1 (stereo partly drawn) [Cmpd 82, 2-((2R,4S)-4-(2-(4-(3-(4-cyano-3-(trifluoromethyl)phenyl)-5,5-dimethyl-4-oxo-2-thioxoimidazolidin-1-yl)-2-ethylphenoxy)ethyl)-2-methylpiperidin-1-yl)-N-(5-(2,6-dioxopiperidin-3-ylamino)-2-fluorophenyl)acetamide] | ** (25%<Y<=35%) | 100 to 500
CCc1cc(N2C(=S)N(c3cnc(C#N)c(C(F)(F)F)c3)C(=O)C23CCC3)ccc1OCCC1CCN([C@@H](C)C(=O)Nc2cccc(NC3CCC(=O)NC3=O)c2)CC1 (stereo partly drawn) [Cmpd 83, (2S)-2-(4-(2-(4-(7-(6-cyano-5-(trifluoromethyl)pyridin-3-yl)-8-oxo-6-thioxo-5,7-diazaspiro[3.4]octan-5-yl)-2-ethylphenoxy)ethyl)piperidin-1-yl)-N-(3-(2,6-dioxopiperidin-3-ylamino)phenyl)propanamide] | * (0<Y<=25%) | < 100

Other lines, results leading:

Y (lowest measured AR level normalized to DMSO control) | DC50 [nM] | SMILES
* (0<Y<=25%) | < 100 | C[C@H](C(=O)Nc1cccc(NC2CCC(=O)NC2=O)c1)N1CCC(CCOc2ccc(N3C(=S)N(c4cnc(C#N)c(C(F)(F)F)c4)C(=O)C3(C)C)cc2CCF)CC1 (stereo partly drawn) [Cmpd 72, (2R)-2-(4-(2-(4-(3-(6-cyano-5-(trifluoromethyl)pyridin-3-yl)-5,5-dimethyl-4-oxo-2-thioxoimidazolidin-1-yl)-2-(2-fluoroethyl)phenoxy)ethyl)piperidin-1-yl)-N-(3-(2,6-dioxopiperidin-3-ylamino)phenyl)propanamide]
* (0<Y<=25%) | < 100 | C[C@@H](C(=O)Nc1cccc(NC2CCC(=O)NC2=O)c1)N1CCC(CCOc2ccc(N3C(=S)N(c4cnc(C#N)c(C(F)(F)F)c4)C(=O)C3(C)C)cc2CCF)CC1 (stereo partly drawn) [Cmpd 73, (2S)-2-(4-(2-(4-(3-(6-cyano-5-(trifluoromethyl)pyridin-3-yl)-5,5-dimethyl-4-oxo-2-thioxoimidazolidin-1-yl)-2-(2-fluoroethyl)phenoxy)ethyl)piperidin-1-yl)-N-(3-(2,6-dioxopiperidin-3-ylamino)phenyl)propanamide]
* (0<Y<=25%) | < 100 | CCc1cc(N2C(=S)N(c3cnc(C#N)c(C(F)(F)F)c3)C(=O)C2(C)C)ccc1OCC[C@H]1CCN(CC(=O)Nc2cccc(NC3CCC(=O)NC3=O)c2)[C@H](C)C1 (stereo partly drawn) [Cmpd 76, 2-((2R,4S)-4-(2-(4-(3-(6-cyano-5-(trifluoromethyl)pyridin-3-yl)-5,5-dimethyl-4-oxo-2-thioxoimidazolidin-1-yl)-2-ethylphenoxy)ethyl)-2-methylpiperidin-1-yl)-N-(3-(2,6-dioxopiperidin-3-ylamino)phenyl)acetamide]
* (0<Y<=25%) | 100 to 500 | CCc1cc(N2C(=S)N(c3cnc(C#N)c(C(F)(F)F)c3)C(=O)C2(C)C)ccc1OCC[C@H]1CCN(CC(=O)Nc2cc(NC3CCC(=O)NC3=O)ccc2F)[C@H](C)C1 (stereo partly drawn) [Cmpd 77, 2-((2R,4S)-4-(2-(4-(3-(6-cyano-5-(trifluoromethyl)pyridin-3-yl)-5,5-dimethyl-4-oxo-2-thioxoimidazolidin-1-yl)-2-ethylphenoxy)ethyl)-2-methylpiperidin-1-yl)-N-(5-(2,6-dioxopiperidin-3-ylamino)-2-fluorophenyl)acetamide]
* (0<Y<=25%) | < 100 | CCc1cc(N2C(=S)N(c3cnc(C#N)c(C(F)(F)F)c3)C(=O)C2(C)C)ccc1OCC[C@@H]1CCN(CC(=O)Nc2cccc(NC3CCC(=O)NC3=O)c2)[C@H](C)C1 (stereo partly drawn) [Cmpd 78, 2-((2R,4R)-4-(2-(4-(3-(6-cyano-5-(trifluoromethyl)pyridin-3-yl)-5,5-dimethyl-4-oxo-2-thioxoimidazolidin-1-yl)-2-ethylphenoxy)ethyl)-2-methylpiperidin-1-yl)-N-(3-(2,6-dioxopiperidin-3-ylamino)phenyl)acetamide]
** (25%<Y<=35%) | 100 to 500 | CCc1cc(N2C(=S)N(c3cnc(C#N)c(C(F)(F)F)c3)C(=O)C2(C)C)ccc1OCC[C@@H]1CCN(CC(=O)Nc2cc(NC3CCC(=O)NC3=O)ccc2F)[C@H](C)C1 (stereo partly drawn) [Cmpd 79, 2-((2R,4R)-4-(2-(4-(3-(6-cyano-5-(trifluoromethyl)pyridin-3-yl)-5,5-dimethyl-4-oxo-2-thioxoimidazolidin-1-yl)-2-ethylphenoxy)ethyl)-2-methylpiperidin-1-yl)-N-(5-(2,6-dioxopiperidin-3-ylamino)-2-fluorophenyl)acetamide]
** (25%<Y<=35%) | < 100 | CCc1cc(N2C(=S)N(c3cnc(C#N)c(C(F)(F)F)c3)C(=O)C2(C)C)ccc1OCC1CCN(CC(=O)Nc2cccc(NC3CCC(=O)NC3=O)c2)CC1 (stereo not drawn) [Cmpd 80, 2-(4-((4-(3-(6-cyano-5-(trifluoromethyl)pyridin-3-yl)-5,5-dimethyl-4-oxo-2-thioxoimidazolidin-1-yl)-2-ethylphenoxy)methyl)piperidin-1-yl)-N-(3-(2,6-dioxopiperidin-3-ylamino)phenyl)acetamide]
* (0<Y<=25%) | < 100 | CCc1cc(N2C(=S)N(c3cnc(C#N)c(C(F)(F)F)c3)C(=O)C23CCC3)ccc1OCCC1CCN([C@H](C)C(=O)Nc2cccc(NC3CCC(=O)NC3=O)c2)CC1 (stereo partly drawn) [Cmpd 84, (2R)-2-(4-(2-(4-(7-(6-cyano-5-(trifluoromethyl)pyridin-3-yl)-8-oxo-6-thioxo-5,7-diazaspiro[3.4]octan-5-yl)-2-ethylphenoxy)ethyl)piperidin-1-yl)-N-(3-(2,6-dioxopiperidin-3-ylamino)phenyl)propanamide]
